The record followed here is publication PMC5218480 (PLoS ONE, 2017).

SMILES strings stand for the structures.

This test deals with MV-4-11 cells. Nature of the test: Gene expression microarray analysis (Affymetrix PrimeView) and GSEA. In kind it is cell-based, human. Further details: RFU PODN (11730768_x_at) / Fold change /veh PODN (11730768_x_at) / RFU LINC00158 (11744669_a_at) / Fold change /veh LINC00158 (11744669_a_at) / RFU DUSP10 (11751237_a_at) / Fold change /veh DUSP10 (11751237_a_at) / RFU ID3 (11757404_x_at) / Fold change /veh ID3 (11757404_x_at) / RFU PLEKHG5 (11737974_s_at) / Fold change /veh PLEKHG5 (11737974_s_at) / RFU LRRC4B (11730491_at) / Fold change /veh LRRC4B (11730491_at) / RFU GIMAP4 (11747438_a_at) / Fold change /veh GIMAP4 (11747438_a_at) / RFU KRT8 (11758183_x_at) / Fold change /veh KRT8 (11758183_x_at) / RFU CNN1 (11734310_a_at) / Fold change /veh CNN1 (11734310_a_at) / RFU VPS37D (11726825_at) / Fold change /veh VPS37D (11726825_at) / RFU C10orf10 (11716522_x_at) / Fold change /veh C10orf10 (11716522_x_at) / RFU KIR2DL2 /// KIR2DL4 /// KIR2DL5A /// KIR2DL5B /// KIR2DS1 /// KIR2DS2 /// KIR2DS3 /// KIR2DS4 /// KIR3DL3 /// KIR3DL3 /// KIR3DS1 (11738374_at) / Fold change /veh KIR2DL2 /// KIR2DL4 /// KIR2DL5A /// KIR2DL5B /// KIR2DS1 /// KIR2DS2 /// KIR2DS3 /// KIR2DS4 /// KIR3DL3 /// KIR3DL3 /// KIR3DS1 (11738374_at) / RFU C1QL1 (11718748_at) / Fold change /veh C1QL1 (11718748_at) / RFU TMPRSS4 (11747572_a_at) / Fold change /veh TMPRSS4 (11747572_a_at) / RFU HAMP (11756126_x_at) / Fold change /veh HAMP (11756126_x_at) / RFU RNFT2 (11725882_a_at) / Fold change /veh RNFT2 (11725882_a_at) / RFU NR4A2 (11747474_a_at) / Fold change /veh NR4A2 (11747474_a_at) / RFU ABCC12 (11746883_a_at) / Fold change /veh ABCC12 (11746883_a_at) / RFU TMEM136 (11760407_x_at) / Fold change /veh TMEM136 (11760407_x_at) / RFU CLDN22 /// WWC2 (11732394_at) / Fold change /veh CLDN22 /// WWC2 (11732394_at) / RFU HLA-DPB1 (11760878_x_at) / Fold change /veh HLA-DPB1 (11760878_x_at) / RFU SPINT1 (11716480_a_at) / Fold change /veh SPINT1 (11716480_a_at) / RFU GAP43 (11754022_s_at) / Fold change /veh GAP43 (11754022_s_at) / RFU A4GNT (11735810_at) / Fold change /veh A4GNT (11735810_at) / RFU PRB3 (11715151_x_at) / Fold change /veh PRB3 (11715151_x_at) / RFU TUBB4B (11761932_at) / Fold change /veh TUBB4B (11761932_at) / RFU CAPN14 (11732068_a_at) / Fold change /veh CAPN14 (11732068_a_at) / RFU TMCC2 (11721928_a_at) / Fold change /veh TMCC2 (11721928_a_at) / RFU IRGQ (11745062_a_at) / Fold change /veh IRGQ (11745062_a_at) / RFU FAM174B (11720279_a_at) / Fold change /veh FAM174B (11720279_a_at) / RFU TMPRSS4 (11748680_a_at) / Fold change /veh TMPRSS4 (11748680_a_at) / RFU FAM212B (11763350_a_at) / Fold change /veh FAM212B (11763350_a_at) / RFU PLEKHG5 (11743358_a_at) / Fold change /veh PLEKHG5 (11743358_a_at) / RFU ZSCAN30 (11745921_a_at) / Fold change /veh ZSCAN30 (11745921_a_at) / RFU CMKLR1 (11741424_a_at) / Fold change /veh CMKLR1 (11741424_a_at) / RFU LOC101060620 /// MAPK8IP1 (11723275_at) / Fold change /veh LOC101060620 /// MAPK8IP1 (11723275_at) / RFU SPTSSB (11747773_x_at) / Fold change /veh SPTSSB (11747773_x_at) / RFU PRSS12 (11739890_at) / Fold change /veh PRSS12 (11739890_at) / RFU BIN1 (11741810_x_at) / Fold change /veh BIN1 (11741810_x_at) / RFU WNT11 (11732464_a_at) / Fold change /veh WNT11 (11732464_a_at) / RFU C10orf10 (11716521_a_at) / Fold change /veh C10orf10 (11716521_a_at) / RFU C5orf56 (11738089_at) / Fold change /veh C5orf56 (11738089_at) / RFU CYB561 (11721691_x_at) / Fold change /veh CYB561 (11721691_x_at) / RFU ANKRD19P (11752326_a_at) / Fold change /veh ANKRD19P (11752326_a_at) / RFU OR2T12 /// OR2T33 /// OR2T8 (11738714_s_at) / Fold change /veh OR2T12 /// OR2T33 /// OR2T8 (11738714_s_at) / RFU VCAN (11748164_a_at) / Fold change /veh VCAN (11748164_a_at) / RFU JSRP1 (11732532_at) / Fold change /veh JSRP1 (11732532_at) / RFU KRTAP10-11 (11738290_x_at) / Fold change /veh KRTAP10-11 (11738290_x_at) / RFU MYO3A (11730013_a_at) / Fold change /veh MYO3A (11730013_a_at) / RFU EBF3 (11725865_a_at) / Fold change /veh EBF3 (11725865_a_at) / RFU CAMK2N1 (11719241_x_at) / Fold change /veh CAMK2N1 (11719241_x_at) / RFU C5orf56 (11738088_a_at) / Fold change /veh C5orf56 (11738088_a_at) / RFU OLFML3 (11715873_a_at) / Fold change /veh OLFML3 (11715873_a_at) / RFU LOC100653217 /// NTM (11731650_a_at) / Fold change /veh LOC100653217 /// NTM (11731650_a_at) / RFU MAPK11 (11762145_a_at) / Fold change /veh MAPK11 (11762145_a_at) / RFU FIZ1 (11724087_x_at) / Fold change /veh FIZ1 (11724087_x_at) / RFU OASL (11726364_x_at) / Fold change /veh OASL (11726364_x_at) / RFU SOX15 (11748057_x_at) / Fold change /veh SOX15 (11748057_x_at) / RFU CD79A (11719716_a_at) / Fold change /veh CD79A (11719716_a_at) / RFU HIST1H1D (11736915_at) / Fold change /veh HIST1H1D (11736915_at) / RFU CASKIN2 (11723855_a_at) / Fold change /veh CASKIN2 (11723855_a_at) / RFU LOC730098 (11760151_x_at) / Fold change /veh LOC730098 (11760151_x_at) / RFU OR4N2 (11742367_at) / Fold change /veh OR4N2 (11742367_at) / RFU PRRT2 (11749266_a_at) / Fold change /veh PRRT2 (11749266_a_at) / RFU SNX32 (11753110_a_at) / Fold change /veh SNX32 (11753110_a_at) / RFU CDHR5 (11726645_a_at) / Fold change /veh CDHR5 (11726645_a_at) / RFU RCAN1 (11760418_a_at) / Fold change /veh RCAN1 (11760418_a_at) / RFU FAM167A (11723789_a_at) / Fold change /veh FAM167A (11723789_a_at) / RFU FAM26E (11764081_at) / Fold change /veh FAM26E (11764081_at) / RFU ISYNA1 (11749810_s_at) / Fold change /veh ISYNA1 (11749810_s_at) / RFU ACY1 (11761880_at) / Fold change /veh ACY1 (11761880_at) / RFU 11764098_at / Fold change /veh 11764098_at / RFU SAMD14 (11745864_x_at) / Fold change /veh SAMD14 (11745864_x_at) / RFU NPB (11741838_a_at) / Fold change /veh NPB (11741838_a_at) / RFU TMPRSS6 (11731388_a_at) / Fold change /veh TMPRSS6 (11731388_a_at) / RFU KRTAP10-2 (11738614_at) / Fold change /veh KRTAP10-2 (11738614_at) / RFU ARHGAP8 /// PRR5-ARHGAP8 (11727945_x_at) / Fold change /veh ARHGAP8 /// PRR5-ARHGAP8 (11727945_x_at) / RFU KRTAP5-7 /// NADSYN1 (11734609_at) / Fold change /veh KRTAP5-7 /// NADSYN1 (11734609_at) / RFU RASL12 (11751679_a_at) / Fold change /veh RASL12 (11751679_a_at) / RFU CDKN2B (11736163_a_at) / Fold change /veh CDKN2B (11736163_a_at) / RFU PRF1 (11729649_at) / Fold change /veh PRF1 (11729649_at) / RFU, ZNF638 /// ZNF638-IT1 / Fold change vs veh, ZNF638 /// ZNF638-IT1 / RFU, PANK3 / Fold change vs veh, PANK3 / RFU, SH3YL1 / Fold change vs veh, SH3YL1 / RFU, ZEB2 / Fold change vs veh, ZEB2 / RFU, NRIP1 / Fold change vs veh, NRIP1 / RFU, PTTG1IP / Fold change vs veh, PTTG1IP / RFU, CAPN2 / Fold change vs veh, CAPN2 / RFU, MED14 / Fold change vs veh, MED14 / RFU, SNORA58 / Fold change vs veh, SNORA58 / RFU, C1orf63 / Fold change vs veh, C1orf63 / RFU, LRRFIP1 / Fold change vs veh, LRRFIP1 / RFU, NDUFAF7 / Fold change vs veh, NDUFAF7 / RFU, SLC12A2 / Fold change vs veh, SLC12A2 / RFU, IBTK / Fold change vs veh, IBTK / RFU, ESF1 / Fold change vs veh, ESF1 / Fold change vs veh, TMEM50B / RFU, TAOK1 / Fold change vs veh, TAOK1 / RFU, ACBD3 / Fold change vs veh, ACBD3 / RFU, TMA16 / Fold change vs veh, TMA16 / RFU, RWDD3 / Fold change vs veh, RWDD3 / RFU, BCAT1 / Fold change vs veh, BCAT1 / RFU, EDEM3 / Fold change vs veh, EDEM3 / RFU, TMEM33 / Fold change vs veh, TMEM33 / RFU, WDR75 / Fold change vs veh, WDR75 / RFU, AHCTF1 / Fold change vs veh, AHCTF1 / RFU, TFRC / Fold change vs veh, TFRC / RFU, ZDHHC17 / Fold change vs veh, ZDHHC17 / RFU, NOM1 / Fold change vs veh, NOM1 / RFU, ARL8B / Fold change vs veh, ARL8B / RFU, ZBTB11 / Fold change vs veh, ZBTB11 / RFU, TAMM41 / Fold change vs veh, TAMM41 / RFU, KIAA1704 /// LOC100996395 / Fold change vs veh, KIAA1704 /// LOC100996395 / RFU, ING1 / Fold change vs veh, ING1 / RFU, TRMT61B / Fold change vs veh, TRMT61B / RFU, FUBP3 / Fold change vs veh, FUBP3 / RFU, TP53 / Fold change vs veh, TP53 / RFU, TNKS2 / Fold change vs veh, TNKS2 / RFU, ZFP14 / Fold change vs veh, ZFP14 / RFU, ACTR2 / Fold change vs veh, ACTR2 / RFU, PPP3R1 / Fold change vs veh, PPP3R1 / RFU, PIK3R1 / Fold change vs veh, PIK3R1 / RFU, HNRNPA1 / Fold change vs veh, HNRNPA1 / RFU, RNF170 / Fold change vs veh, RNF170 / RFU, ZNF28 / Fold change vs veh, ZNF28 / RFU, RNGTT / Fold change vs veh, RNGTT / RFU, OGT / Fold change vs veh, OGT / RFU, BRD1 / Fold change vs veh, BRD1 / RFU, MARS / Fold change vs veh, MARS / RFU, ZNF655 / Fold change vs veh, ZNF655 / RFU, FAHD1 / Fold change vs veh, FAHD1 / RFU, BDP1 / Fold change vs veh, BDP1 / RFU, LRRCC1 / Fold change vs veh, LRRCC1 / RFU, ARID1A / Fold change vs veh, ARID1A / RFU, ZNF146 / Fold change vs veh, ZNF146 / RFU, ZNF330 / Fold change vs veh, ZNF330 / RFU, GPN3 / Fold change vs veh, GPN3 / RFU, C9orf123 / Fold change vs veh, C9orf123 / RFU, N4BP2L2 / Fold change vs veh, N4BP2L2 / RFU, ARFIP1 / Fold change vs veh, ARFIP1 / RFU, FAM179B / Fold change vs veh, FAM179B / RFU, BCL10 / Fold change vs veh, BCL10 / RFU, UHRF1BP1L / Fold change vs veh, UHRF1BP1L / RFU, BET1 / Fold change vs veh, BET1 / RFU, CNOT2 / Fold change vs veh, CNOT2 / RFU, ZNF268 / Fold change vs veh, ZNF268 / Fold change vs veh, ZNF507 / RFU, DGCR2 / Fold change vs veh, DGCR2 / RFU, WDSUB1 / Fold change vs veh, WDSUB1 / Fold change vs veh, HSP90B1 /// MIR3652 / RFU, ADSS / Fold change vs veh, ADSS / RFU, GK / Fold change vs veh, GK / RFU, ZNF148 / Fold change vs veh, ZNF148 / RFU, TAF9 / Fold change vs veh, TAF9 / RFU, SLC1A5 / Fold change vs veh, SLC1A5 / RFU, SLMO2 / Fold change vs veh, SLMO2 / RFU, ABCC4 / Fold change vs veh, ABCC4 / RFU, LOC101060439 /// RAP1B / Fold change vs veh, LOC101060439 /// RAP1B / RFU, RFX7 / Fold change vs veh, RFX7 / RFU, GTPBP10 / Fold change vs veh, GTPBP10 / RFU, CNEP1R1 / Fold change vs veh, CNEP1R1 / RFU, BIVM-ERCC5 /// ERCC5 / Fold change vs veh, BIVM-ERCC5 /// ERCC5 / RFU, ILF3 / Fold change vs veh, ILF3 / RFU 11762660_at / Fold change /veh 11762660_at / RFU VCAN (11757783_s_at) / Fold change /veh VCAN (11757783_s_at) / RFU DDX43 (11728927_at) / Fold change /veh DDX43 (11728927_at) / RFU KRT8 (11758188_x_at) / Fold change /veh KRT8 (11758188_x_at) / RFU NKD1 (11759106_at) / Fold change /veh NKD1 (11759106_at) / RFU SRD5A1 (11742802_a_at) / Fold change /veh SRD5A1 (11742802_a_at) / RFU TPSAB1 /// TPSB2 (11721975_s_at) / Fold change /veh TPSAB1 /// TPSB2 (11721975_s_at) / RFU GSTM3 (11746129_a_at) / Fold change /veh GSTM3 (11746129_a_at) / RFU IL23R (11737362_x_at) / Fold change /veh IL23R (11737362_x_at) / RFU TMEM51 (11727254_a_at) / Fold change /veh TMEM51 (11727254_a_at) / RFU PIWIL2 (11732686_x_at) / Fold change /veh PIWIL2 (11732686_x_at) / RFU ORM1 (11744905_x_at) / Fold change /veh ORM1 (11744905_x_at) / RFU CCDC152 (11743942_at) / Fold change /veh CCDC152 (11743942_at) / RFU ECM1 (11717891_a_at) / Fold change /veh ECM1 (11717891_a_at) / RFU IL23R (11748794_a_at) / Fold change /veh IL23R (11748794_a_at) / RFU TNFAIP8L3 (11732012_x_at) / Fold change /veh TNFAIP8L3 (11732012_x_at) / RFU MBOAT4 (11741988_at) / Fold change /veh MBOAT4 (11741988_at) / RFU 11764193_at / Fold change /veh 11764193_at / RFU TMEM53 (11763286_at) / Fold change /veh TMEM53 (11763286_at) / RFU MAGEB2 (11727129_at) / Fold change /veh MAGEB2 (11727129_at) / RFU TMEM200A (11744735_a_at) / Fold change /veh TMEM200A (11744735_a_at) / RFU CCDC152 (11751479_a_at) / Fold change /veh CCDC152 (11751479_a_at) / RFU FAM211A (11726209_a_at) / Fold change /veh FAM211A (11726209_a_at) / RFU RGS16 (11746705_a_at) / Fold change /veh RGS16 (11746705_a_at) / RFU VCAN (11755009_s_at) / Fold change /veh VCAN (11755009_s_at) / RFU RHOB (11743442_s_at) / Fold change /veh RHOB (11743442_s_at) / RFU RGS16 (11720943_a_at) / Fold change /veh RGS16 (11720943_a_at) / RFU RGS16 (11720944_at) / Fold change /veh RGS16 (11720944_at) / RFU, VPS4B / Fold change vs veh, VPS4B / RFU, CREB1 / Fold change vs veh, CREB1 / RFU, DNAJC13 / Fold change vs veh, DNAJC13 / RFU, GNAQ / Fold change vs veh, GNAQ / RFU, CDK5R1 / Fold change vs veh, CDK5R1 / RFU, ZRANB3 / Fold change vs veh, ZRANB3 / RFU, CUL4A / Fold change vs veh, CUL4A / RFU, CCNY / Fold change vs veh, CCNY / RFU, UFL1 / Fold change vs veh, UFL1 / RFU, COG3 / Fold change vs veh, COG3 / RFU, DIAPH2 / Fold change vs veh, DIAPH2 / RFU, SKA2 / Fold change vs veh, SKA2 / RFU, AFF3 / Fold change vs veh, AFF3 / RFU, LMF1 / Fold change vs veh, LMF1 / RFU, IPO11 / Fold change vs veh, IPO11 / RFU, DFFB / Fold change vs veh, DFFB / RFU, FOXP1 / Fold change vs veh, FOXP1 / RFU, CARD8 / Fold change vs veh, CARD8 / RFU, STRN3 / Fold change vs veh, STRN3 / RFU, ADK / Fold change vs veh, ADK / RFU, RASSF2 / Fold change vs veh, RASSF2 / RFU, WIPF1 / Fold change vs veh, WIPF1 / RFU, LARP1B / Fold change vs veh, LARP1B / RFU, RASA1 / Fold change vs veh, RASA1 / RFU, RB1 / Fold change vs veh, RB1 / RFU, PPFIA1 / Fold change vs veh, PPFIA1 / RFU, MAT2A / Fold change vs veh, MAT2A / RFU, CCT5 / Fold change vs veh, CCT5 / RFU, WDR92 / Fold change vs veh, WDR92 / RFU, CUX1 / Fold change vs veh, CUX1 / RFU, TTC7A / Fold change vs veh, TTC7A / RFU, TMEM135 / Fold change vs veh, TMEM135 / RFU, DEPTOR / Fold change vs veh, DEPTOR / RFU, CPM / Fold change vs veh, CPM / RFU, DNAJB6 / Fold change vs veh, DNAJB6 / RFU, CACNA2D3 / Fold change vs veh, CACNA2D3 / RFU, DTX4 / Fold change vs veh, DTX4 / RFU, TFCP2 / Fold change vs veh, TFCP2 / RFU, GMCL1 /// GMCL1P1 / Fold change vs veh, GMCL1 /// GMCL1P1 / RFU, AEBP2 / Fold change vs veh, AEBP2 / RFU, SNHG1 /// SNORD22 /// SNORD25 /// SNORD26 /// SNORD27 /// SNORD28 /// SNORD29 /// SNORD31 / Fold change vs veh, SNHG1 /// SNORD22 /// SNORD25 /// SNORD26 /// SNORD27 /// SNORD28 /// SNORD29 /// SNORD31 / Fold change (Aza/veh), C12orf56 (ProbeSet 11735607_a_at) / Fold change (ACY-1035/veh), C12orf56 (ProbeSet 11735607_a_at) / Fold change (Aza/veh), FGFR1OP (ProbeSet 11751329_s_at) / Fold change (ACY-1035/veh), FGFR1OP (ProbeSet 11751329_s_at) / Fold change (Aza/veh), VPS36 (ProbeSet 11739960_a_at) / Fold change (ACY-1035/veh), VPS36 (ProbeSet 11739960_a_at) / RFU SYPL1 (11715823_x_at) / Fold change /veh SYPL1 (11715823_x_at) / RFU IGFBP7 (11715501_s_at) / Fold change /veh IGFBP7 (11715501_s_at) / RFU REEP3 (11722064_at) / Fold change /veh REEP3 (11722064_at) / RFU IGLL1 (11728026_x_at) / Fold change /veh IGLL1 (11728026_x_at): dose or concentration left out as unconfirmed. The note with it: MV-4-11 cells, 48 hours.

In the case of `Nc1ncn([C@@H]2O[C@H](CO)[C@@H](O)[C@H]2O)c(=O)n1` [azacitidine], the “RFU RNFT2 (11725882_a_at)” value was 15.64 RFU.
